Data set [1] in a line: Pharmacokinetic study after single topical administration of ointment to the skin of CD-1 mice (LC-MS/MS). The data set is classed as in vivo. To be noted: 3% suspension ointment. The protocol:
6 CD-1 mice were divided into 2 groups, with 3 mice per group, and then respectively received an ointment containing the compound of formula (I) by single topical administration to the backs at 1 mg/cm^2 (3% suspension ointment) with an application area of 1 cm^2. The plasma concentration and skin tissue homogenate concentration of the compound of formula (I) were determined by an LC-MS/MS method.

Data set [2] can be described thus: Stability test of binary mixtures of the compound of formula (I) and penetration enhancers. The data set is classed as physicochemical. To be noted: binary mixture 10:1, 40°C/75%RH. The protocol:
Different types of penetration enhancers and the compound of formula (I) were mixed at a weight ratio of 10:1 to carry out a stability test under accelerated conditions of 40°C/75%RH. Table 15: Stability test of binary mixtures of the compound of formula (I) and penetration enhancers

Data set [3] has as its system human HaCaT keratinocytes. Put plainly: m6A methylation level of human keratinocytes (EpiQuik m6A RNA methylation quantification kit). The format is cell-based. Conditions: 24 hours, relative to control group 1. The procedure:
HaCaT cells were cultured in DMEM culture medium containing 10% fetal bovine serum, 100 U/mL penicillin, and 100 µg/mL streptomycin. Culture dishes were placed in an incubator containing 5% CO2 for culture at 37°C for 24 hours. An equal volume of DMSO was added in control group 1, 50 nM sorafenib, capecitabine, docetaxel, and osimertinib were respectively added in control groups A, B, C, and D, and 400 nM test compounds or nicotinamide were respectively added in sample groups A1, A2, B1, B2, C1, C2, D1, and D2 after the addition of 50 nM corresponding compounds. The cells were continuously cultured for 24 hours, washed with PBS, and then collected by high-speed centrifugation. Total RNA was extracted using Trizol reagent (Sigma Aldrich), and RNA m6A methylation of a sample was quantitatively detected using an EpiQuik m6A RNA methylation quantification kit. The concentrations of positive control samples for a standard curve were 0.01 ng/µl, 0.02 ng/µl, 0.05 ng/µl, 0.1 ng/µl, 0.2 ng/µl, and 0.5 ng/µl. The absorbance at 450 nm was read using a microplate reader (Tecan GENios). A quantitative calculation formula for m6A is as follows: m6A (ng) = (absorbanceofsamplewell-absorbanceofbackgroundwell)/slope of standard curve [formula] m6A (%) = m6A (ng)/RNA amount of sample (ng)*100%. [formula]
Table 1: Fold change in m6A methylation level relative to control group 1

[4] abbreviates: dorsal skin tissue homogenate, 1 mg/cm^2, mean.
The mark [5] stands for this setting: mouse, topical or ocular, plasma, 1 mg/cm^2, mean.

Structures are written as SMILES. Like-named read-outs stand apart in the source and are kept apart here.

Consider `NC(=O)[C@H]1CCCc2c1[nH]c1ccc(Cl)cc21` [Compound of formula (I), (S)-6-chloro-2,3,4,9-tetrahydro-1H-carbazole-carboxamide], for which the “Plasma drug concentration at 24 h” value in data set [1] (1 mg/cm^2) is on record as “Below a lower detection limit”. In data set [1] (setting [4]), the “Drug concentration in skin tissues at 4 h” value is listed as 33,033 ng/g and the “Drug concentration in skin tissues at 24 h” value is on record as 7,907 ng/g. Moreover, the concentration at 4 h in data set [1] (mouse, dorsal skin tissue homogenate, 1 mg/cm^2, mean, read-out: Drug concentration in skin tissues at 4 h) is 33000 ng/g. For the same compound, the concentration at 24 h in data set [1] (mouse, dorsal skin tissue homogenate, 1 mg/cm^2, mean, read-out: Drug concentration in skin tissues at 24 h) came out at 7910 ng/g. Besides, in data set [1] (mouse, plasma, 1 mg/cm^2, mean, read-out: Plasma drug concentration at 4 h), the concentration at 4 h worked out at 6.15 ng/mL. This compound had a Cmax in data set [1] (mouse, topical or ocular, plasma, 1 mg/cm^2, 1 cm^2, mean) of 14 ng/mL. In data set [1] (setting [5]), the AUC(0-inf) was 57.5 ng·h/mL, the area under the curve AUC(0-t) was 40.7 ng·h/mL, the mean residence time (MRT inf) is 5.54 h and the Tmax worked out at 1.67 h. The half-life in data set [1] (setting [5]) was 5.15 h. In data set [1] (plasma, 1 mg/cm^2, mean), the “AUC Extr” value is 18.9% and the AUCInf/Dose was 1.63 kg·ng·h/mL/mg. In addition, in data set [2], the “stability in diisopropyl oxalate” value is on record as “unstable” and the “stability in propylene carbonate” value is recorded as “unstable”. In data set [3] (400 nM after 50 nM capecitabine), the m6A fold change is reported as 1.1. Besides, in data set [3] (400 nM after 50 nM docetaxel), the m6A fold change was determined as 1.0. Further, the m6A fold change in data set [3] (400 nM after 50 nM osimertinib) is on record as 1.2. Besides, in data set [3] (400 nM after 50 nM sorafenib), the m6A fold change amounted to 1.4.

These data come from patent EP4789666A1, “RNA M6A REGULATOR COMPOSITION, PREPARATION METHOD THEREFOR, AND USE THEREOF” (SHANGHAI MERNA THERAPEUTICS CO. LTD, priority 2023, dated 2025).
